The results in this text go back to PMC6928345, “Detection and functional characterization of sigma class GST in Phlebotomus argentipes and its role in stress tolerance and DDT resistance” (Scientific Reports, 2019).

For series [1], the target named is T1, rParg-GSTσ (sigma class GST of P. argentipes) (Phlebotomus argentipes, UniProt A0A5A4I953).
T1 construct: PCR primers designed on P. papatasi GSTσ
T1 sequence (A0A5A4I953 1-203): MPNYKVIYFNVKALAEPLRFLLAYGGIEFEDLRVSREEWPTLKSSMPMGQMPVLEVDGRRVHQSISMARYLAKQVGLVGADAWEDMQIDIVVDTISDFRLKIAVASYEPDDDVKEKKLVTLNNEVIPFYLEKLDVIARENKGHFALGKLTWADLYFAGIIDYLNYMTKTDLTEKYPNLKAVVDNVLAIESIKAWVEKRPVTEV
Nature of the series: spectrophotometric GSH conjugation assay, […] nm. As to conditions: 1 mM GSH, CDNB 0.07–8 mM, sodium phosphate pH 6.5, room temperature. In kind it is biochemical.

In series [2] the target is T1, rParg-GSTσ (sigma class GST of P. argentipes). As to the kind of experiment: inhibition of GST activity, residual activity. In kind it is biochemical.
Substrate in series [3]: CC(C)(OO)c1ccccc1
Nature of the series: purified protein. In kind it is biochemical, Phlebotomus argentipes. The conditions noted are these: 1 mM GSH, 0.2 mM NADPH, 1 mM EDTA, cumene hydroperoxide 0.08–1.0 mM, sodium phosphate buffer.

Substrate in series [4]: CCCCCC(O)/C=C/C=O
As to the kind of experiment: purified protein. In kind it is biochemical, Phlebotomus argentipes. The conditions noted are these: 1 mM GSH, 4-HNE 10–100 µM, sodium phosphate buffer.

As to `O=[N+]([O-])c1ccc(Cl)c([N+](=O)[O-])c1` [CDNB], in series [1], the Km is 390 µM.

`C=C(CC)C(=O)c1ccc(OCC(=O)O)c(Cl)c1Cl` [Ethacrynic acid]: half-maximal inhibition in series [2] (IC50) was put at 50 nM. In other words, the double-digit nanomolar range.

B1: rParg-GSTσ (sigma class GST of P. argentipes) (Phlebotomus argentipes) (protein)
chain: T1 sequence (A0A5A4I953 1-203)
notes: PCR primers designed on P. papatasi GSTσ
Take B1: the Km is 180 µM in “purified protein [3]” and 5.02 µM in the series “purified protein [4]”.

Usually Km stands for the concentration of substrate that gives half-maximal velocity. A word on the IC50: it is the midpoint of a concentration-inhibition curve. Low readings indicate higher potency, high ones lower potency.
